Laboratory results reported in patent US20250197376A1, “PYRAZINE AMIDE DERIVATIVES” (Novartis AG, priority 2022, published 2025).

What follows are molecules tested on 3D7 P. falciparum strain (assay: P. falciparum 3D7 parasite proliferation assay (SYBR Green)). Conditions: Plasmodium falciparum, Erythrocyte; 3D7 P. falciparum infected human erythrocytes, 72 hours, SYBR Green fluorescence; read-out: Pf3D7 Activity.
Assay type: cell-based
Experimental: The following assay illustrates the invention without in any way limiting the scope of the invention. This parasite proliferation assay measures the increase in parasite DNA content using a DNA intercalating dye, SYBR Green®. 3D7 P. falciparum strain is grown in complete culturing media until parasitemia reaches 3% to 8% with O+ human erythrocytes. 20 μl of screening media is dispensed into 384 well assay plates. 50 nl of compounds of the invention (in DMSO), including antimalarial controls (mefloquine, pyrimethamine and artemisinin), are then transferred into the assay plates, as well as DMSO alone to serve as a negative control for inhibition. Then 30 μl of a suspension of a 3D7 P. falciparum infected erythrocytes in screening media is dispensed into the assay plates such that the final hematocrit is 2.5% with a final parasitemia of 0.3%. The plates are placed in a 37° C. incubator for 72 hours in a low oxygen environment containing 93% N2, 4% CO2, and 3% O2 gas mixture. 10 μl of lysis buffer (saponin, triton-X, EDTA) containing a 10× solution of SYBR Green […] in RPMI media is dispensed into the plates. The plates are lidded and kept at room temperature overnight for the lysis of the infected red blood cells. The fluorescence intensity is measured (excitation […], emission 530 nm) using the Envision™ system (Perkin Elmer). The percentage inhibition of 50%, EC50, is calculated for each compound.
`CC(C)(N)CNC(=O)c1cncc(-c2cc3ccc(OC(F)(F)F)cc3[nH]2)n1` [Example 47, N-(2-amino-2-methylpropyl)-6-(6-(trifluoromethoxy)-1H-indol-2-yl)pyrazine-2-carboxamide] gave an EC50 of 10 to 100 nM. `Cc1c(-c2cncc(C(=O)NCC(C)(C)N)n2)[nH]c2cc(F)c(Cl)cc12` [Example 10, N-(2-amino-2-methylpropyl)-6-(5-chloro-6-fluoro-3-methyl-1H-indol-2-yl)pyrazine-2-carboxamide] showed an EC50 of under 10 nM. `Cc1c(-c2cncc(C(=O)NCC(N)C3CC3)n2)[nH]c2cc(Cl)c(F)cc12` (centres unmarked) [Example 79, N-(2-amino-2-cyclopropylethyl)-6-(6-chloro-5-fluoro-3-methyl-1H-indol-2-yl)pyrazine-2-carboxamide] gave an EC50 of 10 to 100 nM. `CCOC(=O)c1cc2[nH]c(-c3cncc(C(=O)NCC(C)(C)N)n3)cc2s1` [Example 53, Ethyl 5-(6-((2-amino-2-methylpropyl)carbamoyl)pyrazin-2-yl)-4H-thieno[3,2-b]pyrrole-2-carboxylate] gave an EC50 of 10 to 100 nM. `CC(C)(N)CNC(=O)c1cncc(-c2cc3sc(C(N)=O)cc3[nH]2)n1` [Example 108, 5-(6-((2-amino-2-methylpropyl)carbamoyl)pyrazin-2-yl)-4H-thieno[3,2-b]pyrrole-2-carboxamide] was tested, and the EC50 was over 100 nM. Molecule `Cc1ccc2[nH]c(-c3cncc(C(=O)NCC(C)(C)N)n3)c(C)c2c1` [Example 15, N-(2-amino-2-methylpropyl)-6-(3,5-dimethyl-1H-indol-2-yl)pyrazine-2-carboxamide] has an EC50 of 10 to 100 nM. `Cc1c(-c2cncc(C(=O)NCC(C)(C)N3CCOCC3)n2)[nH]c2ccccc12` [Example 96, 6-(3-Methyl-1H-indol-2-yl)-N-(2-methyl-2-morpholinopropyl)pyrazine-2-carboxamide] showed an EC50 of over 100 nM. `Cc1c(-c2cncc(C(=O)NCCCN)n2)[nH]c2ccc(OC(F)(F)F)cc12` [Example 63, N-(3-aminopropyl)-6-(3-methyl-5-(trifluoromethoxy)-1H-indol-2-yl)pyrazine-2-carboxamide] gave an EC50 of 10 to 100 nM. In the case of `Cc1c(-c2cncc(C(=O)NCCC(C)(C)N)n2)[nH]c2ccccc12` [Example 85, N-(3-amino-3-methylbutyl)-6-(3-methyl-1H-indol-2-yl)pyrazine-2-carboxamide], the EC50 is reported as 10 to 100 nM. `Cc1cc2[nH]c(-c3cncc(C(=O)NCC(C)(C)N)n3)c(C)c2s1` [Example 73, N-(2-amino-2-methylpropyl)-6-(2,6-dimethyl-4H-thieno[3,2-b]pyrrol-5-yl)pyrazine-2-carboxamide] gave an EC50 of 10 to 100 nM. Molecule `Cc1c(-c2cncc(C(=O)NC3CCNCC3)n2)[nH]c2ccccc12` [Example 93, 6-(3-methyl-1H-indol-2-yl)-N-(piperidin-4-yl)pyrazine-2-carboxamide] has an EC50 of over 100 nM. In the case of `Cc1c(-c2cncc(C(=O)NCC(N)C3CC3)n2)[nH]c2ccccc12` (centres unmarked) [Example 102], the EC50 is reported as 10 to 100 nM. `CC(C)(N)CNC(=O)c1cncc(-c2cc3cc(Cl)cc(F)c3[nH]2)n1` [Example 13, N-(2-amino-2-methylpropyl)-6-(5-chloro-7-fluoro-1H-indol-2-yl)pyrazine-2-carboxamide] was tested, and the EC50 was 10 to 100 nM. `Cc1c(-c2cncc(C(=O)NCC(C)(C)O)n2)[nH]c2ccccc12` [Example 100, N-(2-hydroxy-2-methylpropyl)-6-(3-methyl-1H-indol-2-yl)pyrazine-2-carboxamide] showed an EC50 of over 100 nM. `CC(C)(N)CNC(=O)c1cncc(-c2cc3cc(Cl)ccc3[nH]2)n1` [Example 19, N-(2-amino-2-methylpropyl)-6-(5-chloro-1H-indol-2-yl)pyrazine-2-carboxamide] showed an EC50 of 10 to 100 nM. Molecule `CC(C)(N)CNC(=O)c1cncc(-c2cc3ccc(Cl)c(F)c3[nH]2)n1` [Example 11, N-(2-amino-2-methylpropyl)-6-(6-chloro-7-fluoro-1H-indol-2-yl)pyrazine-2-carboxamide] has an EC50 of 10 to 100 nM. For `Cc1c(-c2cncc(C(=O)NCC(C)(C)N)n2)[nH]c2ccc(S(C)(=O)=O)cc12` [Example 75, N-(2-Amino-2-methylpropyl)-6-(3-methyl-5-(methylsulfonyl)-1H-indol-2-yl)pyrazine-2-carboxamide], the EC50 was over 100 nM. `CC(C)(N)CNC(=O)c1cncc(-c2cc3ccc(C#N)cc3[nH]2)n1` [Example 34, N-(2-amino-2-methylpropyl)-6-(6-cyano-1H-indol-2-yl)pyrazine-2-carboxamide] was tested, and the EC50 was over 100 nM. Molecule `Cc1c(-c2cncc(C(=O)NCC(C)(C)N)n2)[nH]c2ccc(Cl)cc12` [Example 12, N-(2-amino-2-methylpropyl)-6-(5-chloro-3-methyl-1H-indol-2-yl)pyrazine-2-carboxamide] has an EC50 of 10 to 100 nM. Molecule `COc1ccc2[nH]c(-c3cncc(C(=O)NCC(C)(C)N)n3)cc2c1` [Example 32, N-(2-amino-2-methylpropyl)-6-(5-methoxy-1H-indol-2-yl)pyrazine-2-carboxamide] has an EC50 of over 100 nM. `CC(C)(N)CNC(=O)c1cncc(-c2cc3cc(Cl)c(F)cc3[nH]2)n1` [Example 17, N-(2-amino-2-methylpropyl)-6-(5-chloro-6-fluoro-1H-indol-2-yl)pyrazine-2-carboxamide] gave an EC50 of 10 to 100 nM. Molecule `CC(C)(N)CNC(=O)c1cncc(-c2cc3cc(F)ccc3[nH]2)n1` [Example 27, N-(2-amino-2-methylpropyl)-6-(5-fluoro-1H-indol-2-yl)pyrazine-2-carboxamide] has an EC50 of 10 to 100 nM. `Cc1c(-c2cncc(C(=O)NCCN)n2)[nH]c2ccc(OC(F)(F)F)cc12` [Example 60, N-(2-aminoethyl)-6-(3-methyl-5-(trifluoromethoxy)-1H-indol-2-yl)pyrazine-2-carboxamide] gave an EC50 of 10 to 100 nM. With `CC(C)c1c(-c2cncc(C(=O)NCC(C)(C)N)n2)[nH]c2ccc(OC(F)(F)F)cc12` [Example 16, N-(2-amino-2-methylpropyl)-6-(3-isopropyl-5-(trifluoromethoxy)-1H-indol-2-yl)pyrazine-2-carboxamide] the EC50 was 10 to 100 nM. Molecule `CC(C)(N)CNC(=O)c1cncc(-c2cc3ccccc3[nH]2)n1` [Example 35, N-(2-amino-2-methylpropyl)-6-(1H-indol-2-yl)pyrazine-2-carboxamide] has an EC50 of over 100 nM. For `Cc1c(-c2cncc(C(=O)NCC(C)(C)N)n2)[nH]c2ccccc12` [Example 83, N-(2-amino-2-methylpropyl)-6-(3-methyl-1H-indol-2-yl)pyrazine-2-carboxamide], the EC50 was 10 to 100 nM. Work on `Cc1c(-c2cncc(C(=O)NCC3(N)CC(F)(F)C3)n2)[nH]c2cc(Cl)c(F)cc12` [Example 82, N-((1-amino-3,3-difluorocyclobutyl)methyl)-6-(6-chloro-5-fluoro-3-methyl-1H-indol-2-yl)pyrazine-2-carboxamide] yielded an EC50 of 10 to 100 nM. In the case of `Cc1c(-c2cncc(C(=O)NCC(C)(C)N)n2)[nH]c2ccc(CN)cc12` [Example 71, N-(2-amino-2-methylpropyl)-6-(5-(aminomethyl)-3-methyl-1H-indol-2-yl)pyrazine-2-carboxamide], the EC50 is reported as over 100 nM. Molecule `CC(C)(N)CNC(=O)c1cncc(-c2cc3cc(C#N)ccc3[nH]2)n1` [Example 104] has an EC50 of over 100 nM. For `Cc1c(-c2cncc(C(=O)N[C@@H]3CCCC[C@@H]3N)n2)[nH]c2ccccc12` (racemic) [Example 98, (rac)-N-((1r,2s)-2-aminocyclohexyl)-6-(3-methyl-1H-indol-2-yl)pyrazine-2-carboxamide], the EC50 was over 100 nM. For `Cc1c(-c2cncc(C(=O)NCCCN)n2)[nH]c2ccccc12` [Example 90, N-(3-aminopropyl)-6-(3-methyl-1H-indol-2-yl)pyrazine-2-carboxamide], the EC50 was over 100 nM. `CC(C)(N)CNC(=O)c1cncc(-c2cc3cc(F)cc(F)c3[nH]2)n1` [Example 24, N-(2-amino-2-methylpropyl)-6-(5,7-difluoro-1H-indol-2-yl)pyrazine-2-carboxamide] was tested, and the EC50 was 10 to 100 nM. With `CC(C)(N)CNC(=O)c1cncc(-c2cc3c(Cl)nccc3[nH]2)n1` [Example 41, N-(2-amino-2-methylpropyl)-6-(4-chloro-1H-pyrrolo[3,2-c]pyridin-2-yl)pyrazine-2-carboxamide] the EC50 was over 100 nM. For `Cc1c(-c2cncc(C(=O)NCC3(N)CCOCC3)n2)[nH]c2cc(Cl)c(F)cc12` [Example 80, N-((4-aminotetrahydro-2H-pyran-4-yl)methyl)-6-(6-chloro-5-fluoro-3-methyl-1H-indol-2-yl)pyrazine-2-carboxamide], the EC50 was 10 to 100 nM. Molecule `Cc1c(-c2cncc(C(=O)NCC(C)(C)N)n2)[nH]c2ccc(OC(F)F)cc12` [Example 70, N-(2-amino-2-methylpropyl)-6-(5-(difluoromethoxy)-3-methyl-1H-indol-2-yl)pyrazine-2-carboxamide] has an EC50 of 10 to 100 nM. Molecule `Cc1c(-c2cncc(C(=O)N[C@@H]3CCCC[C@H]3N)n2)[nH]c2ccccc12` (racemic) [Example 101, (rac)-N-((1r,2r)-2-aminocyclohexyl)-6-(3-methyl-1H-indol-2-yl)pyrazine-2-carboxamide] has an EC50 of over 100 nM. Work on `Cc1c(-c2cncc(C(=O)NC3CNC3)n2)[nH]c2ccccc12` [Example 91, N-(azetidin-3-yl)-6-(3-methyl-1H-indol-2-yl)pyrazine-2-carboxamide] yielded an EC50 of over 100 nM. Work on `CC(C)(N)CNC(=O)c1cncc(-c2cc3cccc(F)c3[nH]2)n1` [Example 25, N-(2-amino-2-methylpropyl)-6-(7-fluoro-1H-indol-2-yl)pyrazine-2-carboxamide] yielded an EC50 of 10 to 100 nM.
